According to ChEMBL document CHEMBL4406796, “Anti-cancer effects of cinnamon: Insights into its apoptosis effects” (Eur J Med Chem, 2019):

What was measured:
[1] = tested on: PC-3; test: Cytotoxicity against human PC3 cells at 0.5 uM after 72 hrs in presence of 41 ug/ml eugenol by CellTiter one aqueous solution assay relative to control; format: functional
[2] = tested on: PC-3; test: Cytotoxicity against human PC3 cells after 72 hrs by CellTiter one aqueous solution assay; format: functional, cell-based; details: PC-3, 72 h
[3] = species: Mus musculus; test: Down-regulation of c-Myc mRNA expression in mouse relative to control; format: functional
[4] = tested on: HeLa; test: Antiproliferative activity against human HeLa cells at 150 uM after 24 hrs by MTT assay relative to control; format: functional
[5] = tested on: PC-3; test: Cytotoxicity against human PC3 cells at 41 ug/ml after 72 hrs in presence of 0.5 uM 2ME2 by CellTiter one aqueous solution assay relative to control; format: functional
[6] = tested on: HeLa; test: Growth inhibition of human HeLa cells at 10 uM to 1 mM after 24 hrs by MTT assay relative to control; format: functional
[7] = tested on: HeLa; test: Antiproliferative activity against human HeLa cells after 24 hrs by MTT assay relative to control; format: functional
[8] = species: Mus musculus; test: Down-regulation of H-ras mRNA expression in mouse relative to control; format: functional
[9] = tested on: HeLa; test: Antiproliferative activity against human HeLa cells at 15 mM after 24 hrs by MTT assay relative to control; format: functional

## COc1cc2c(cc1O)CC[C@@H]1[C@@H]2CC[C@]2(C)[C@@H](O)CC[C@@H]12 [2-METHOXYESTRADIOL]
[1]
  Activity: 50%
[2]
  IC50: 82 mg/L

## C=CCc1ccc(O)c(OC)c1 [EUGENOL]
[3]
  Activity: 40%
[4]
  Activity: 47%
[5]
  Activity: 50%
[6]
  growth inhibition (GI): 50%
[2]
  IC50: 1 µM
[7]
  Activity: 84%
[8]
  Activity: 28%

## Nc1ccn([C@@H]2O[C@H](CO)[C@@H](O)C2(F)F)c(=O)n1 [GEMCITABINE]
[9]
  Activity: 47%
[7]
  Activity: 73%
